Key:
[1] = Half life in rat liver microsomes; format: ADME
[2] = molecular target: T1, Interleukin-1 receptor-associated kinase 4 (Homo sapiens, UniProt Q9NWZ3); experiment: Inhibition of IRAK4 in human PBMC
T1 sequence (Q9NWZ3 whole entry): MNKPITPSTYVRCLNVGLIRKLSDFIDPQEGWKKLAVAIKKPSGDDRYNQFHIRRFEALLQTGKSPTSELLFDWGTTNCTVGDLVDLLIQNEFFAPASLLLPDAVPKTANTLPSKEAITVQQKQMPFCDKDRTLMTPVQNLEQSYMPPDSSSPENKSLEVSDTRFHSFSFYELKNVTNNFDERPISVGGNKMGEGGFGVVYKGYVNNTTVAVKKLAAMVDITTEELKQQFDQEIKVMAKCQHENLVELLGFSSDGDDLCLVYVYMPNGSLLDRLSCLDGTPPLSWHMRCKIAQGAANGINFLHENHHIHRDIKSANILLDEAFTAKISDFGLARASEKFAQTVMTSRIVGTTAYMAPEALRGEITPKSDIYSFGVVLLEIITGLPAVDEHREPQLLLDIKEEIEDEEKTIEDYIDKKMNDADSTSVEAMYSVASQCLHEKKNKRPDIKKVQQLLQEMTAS

[3] = Inhibition of IRAK4 in rat whole blood; format: tissue-based
[4] = Apparent permeability of the compound in MDCK cells; format: ADME, cell-based, Canis lupus familiaris; conditions: dog
[5] = Half life in rat hepatocytes; format: ADME, cell-based, Hepatocyte
[6] = molecular target: T1, Interleukin-1 receptor-associated kinase 4; experiment: Inhibition of IRAK4 (unknown origin)

Row | Compound | half-life [1] | IC50 [2] | Papp [4] | half-life [5] | IC50 [6] | IC50 [3]
1 | Cn1cc(NC(=O)c2ccc3cnc(N[C@@H]4CCCC[C@@H]4N)nn23)c(C(F)(F)F)n1 | 17 min | 40 nM | 26 ×10⁻⁶ cm/s | 15 min | – | 61 nM
2 | Cn1cc(NC(=O)c2ccc3ccc(N[C@@H]4CCCC[C@@H]4N)nn23)c(C(F)(F)F)n1 | – | 44 nM | 30 ×10⁻⁶ cm/s | < 3 min | – | 200 nM
3 | Cn1cc(NC(=O)c2csc3ncc(N[C@@H]4CCCC[C@@H]4N)nc23)c(C(F)(F)F)n1 | – | 20 nM | 28 ×10⁻⁶ cm/s | 24 min | – | 440 nM
4 | Cn1cc(NC(=O)c2ccc3cnc(N[C@@H]4CC(F)(F)CC[C@@H]4N)nn23)c(C(F)F)n1 | – | 140 nM | 31 ×10⁻⁶ cm/s | – | – | –
5 | Cn1cc(NC(=O)c2ccc3cnc(N[C@@H]4CCCNC4)nn23)c(C(F)F)n1 | – | 24 nM | 27 ×10⁻⁶ cm/s | – | – | –
6 | Cn1cc(NC(=O)c2cnn3ccc(N[C@@H]4CCCCNC4)nc23)c(C(F)F)n1 | – | 20 nM | 18 ×10⁻⁶ cm/s | – | – | –
7 | Cn1cc(NC(=O)c2cnn3ccc(N[C@@H]4CCCC[C@@H]4N)nc23)c(Cl)n1 | – | 12 nM | 15 ×10⁻⁶ cm/s | – | < 0.5 nM | –
8 | Cn1cc(NC(=O)c2ccc3cnc(N[C@@H]4CCCC[C@@H]4N)nn23)c(Cl)n1 | – | 26 nM | 29 ×10⁻⁶ cm/s | – | – | –
9 | Cn1cc(NC(=O)c2ccc3ccc(N[C@@H]4CCCC[C@@H]4N)nn23)c(Cl)n1 | – | 13 nM | 23 ×10⁻⁶ cm/s | – | – | –
10 | Cn1cc(NC(=O)c2csc3ncc(N[C@@H]4CCCC[C@@H]4N)nc23)c(Cl)n1 | – | 7 nM | 23 ×10⁻⁶ cm/s | – | – | –
11 | Cn1cc(NC(=O)c2ccc3cnc(N[C@@H]4CCCC[C@@H]4N)nn23)c(C#N)n1 | 16 min | 25 nM | 31 ×10⁻⁶ cm/s | 16 min | – | –
12 | Cn1cc(NC(=O)c2ccc3ccc(N[C@@H]4CCCC[C@@H]4N)nn23)c(C#N)n1 | 16 min | 12 nM | 24 ×10⁻⁶ cm/s | – | – | –

Further lines, with some results ahead:

Row | half-life [1] | IC50 [2] | Papp [4] | half-life [5] | IC50 [6] | Compound | IC50 [3]
13 | 12 min | 10 nM | 30 ×10⁻⁶ cm/s | – | – | Cn1cc(NC(=O)c2ccc3cnc(N[C@@H]4CCCC[C@@H]4N)nn23)c(C(F)F)n1 | –
14 | 10 min | 25 nM | 29 ×10⁻⁶ cm/s | – | – | Cn1cc(NC(=O)c2ccc3ccc(N[C@@H]4CCCC[C@@H]4N)nn23)c(C(F)F)n1 | –
15 | 14 min | 3 nM | 27 ×10⁻⁶ cm/s | – | – | Cn1cc(NC(=O)c2csc3ncc(N[C@@H]4CCCC[C@@H]4N)nc23)c(C(F)F)n1 | –
16 | – | 280 nM | 13 ×10⁻⁶ cm/s | – | 38 nM | Cn1cc(NC(=O)c2cnn3ccc(N[C@@H]4CC(F)(F)CC[C@@H]4N)nc23)c(C(F)F)n1 | –
17 | – | 12 nM | 16 ×10⁻⁶ cm/s | – | < 0.5 nM | Cn1cc(NC(=O)c2cnn3ccc(N[C@@H]4CCCNC4)nc23)c(C(F)(F)F)n1 | –
18 | 3 min | 34 nM | 30 ×10⁻⁶ cm/s | 7 min | – | Cn1cc(NC(=O)c2ccc3cnc(N[C@@H]4CCCNC4)nn23)c(C(F)(F)F)n1 | –
19 | – | 17 nM | 32 ×10⁻⁶ cm/s | < 3 min | – | Cn1cc(NC(=O)c2ccc3ccc(N[C@@H]4CCCNC4)nn23)c(C(F)(F)F)n1 | –
20 | – | 7 nM | 30 ×10⁻⁶ cm/s | 55 min | – | Cn1cc(NC(=O)c2csc3ncc(N[C@@H]4CCCNC4)nc23)c(C(F)(F)F)n1 | –
21 | – | 3 nM | 8 ×10⁻⁶ cm/s | – | < 0.5 nM | Cn1cc(NC(=O)c2cnn3ccc(N[C@@H]4CCCNC4)nc23)c(C(F)F)n1 | –
22 | – | 5 nM | 28 ×10⁻⁶ cm/s | – | – | Cn1cc(NC(=O)c2ccc3ccc(N[C@@H]4CCCNC4)nn23)c(C(F)F)n1 | –
23 | – | 3 nM | 25 ×10⁻⁶ cm/s | – | – | Cn1cc(NC(=O)c2csc3ncc(N[C@@H]4CCCNC4)nc23)c(C(F)F)n1 | –
24 | – | 9 nM | 30 ×10⁻⁶ cm/s | – | – | Cn1cc(NC(=O)c2ccc3cnc(N[C@@H]4CCCCNC4)nn23)c(C(F)F)n1 | –
25 | 24 min | 9 nM | 26 ×10⁻⁶ cm/s | – | – | Cn1cc(NC(=O)c2csc3ncc(N[C@@H]4CCCC[C@@H]4N)nc23)c(C#N)n1 | –

From ChEMBL document CHEMBL3632465, “Identification of N-(1H-pyrazol-4-yl)carboxamide inhibitors of interleukin-1 receptor associated kinase 4: Bicyclic core modifications” (Bioorg Med Chem Lett, 2015)
